According to patent US20200129511A1, “COMPOUNDS AND METHODS FOR TREATMENT OF NAFLD AND NASH” (Arena Pharmaceuticals, Inc., priority 2017, published 2020):
Entries after “also recorded” stand apart in the source; their conditions may differ.

Tests used:
[1] = tested on: male C57bl/6j mice; assay: oral glucose tolerance test (oGTT) in normal lean mice; format: in vivo, mouse; conditions: 1 mg/kg and 10 mg/kg p.o.
Procedure: (§1) Animals were grouped in regular cages (rats 2/cage, mice 4/cage) with bedding under normal light conditions (lights on 6:30 am-6:30 pm). They were given ad libitum access to food and water. Animals were allowed to acclimate to the facility for several days before handling.
Mouse: Following 2 handling sessions, animals were fasted for 3-16 h.
The oral glucose tolerance test (oGTT) was executed as follows: Compound was administered 0-30 min prior to first blood sample. At time 0, a tail nick and glucose test was performed with a hand-held glucometer, then a bolus of glucose ([…], p.o.) was administered. Glucose was again tested at 20, 40, 60, and 120 minutes post glucose administration. During the entire oGTT, a total volume of approximately 10 drops of blood was collected.

[2] = tested on: Sprague-Dawley rat; assay: oral glucose tolerance test (oGTT) in Sprague-Dawley rat; format: in vivo
Procedure: as §1
Rat: Animals are fasted 3-16 h.
The oral glucose tolerance test (OGTT) was executed as follows: At time minus 30 min, blood was collected via a tail nick and a glucose test performed with a hand-held glucometer, and compound was then administered. At time 0, blood was again collected for glucose reading and then a bolus of glucose (3 g/kg p.o., 6 mL/kg) administered. Blood glucose levels were further tested at 30, 60, and 120 min post glucose administration. During the entire oGTT, a total volume of approximately 8 drops of blood was collected. Rats were used twice with a one week lapse between experiments.

[3] = tested on: ob/ob Mice; assay: oGTT in ob/ob mice; format: in vivo, mouse; conditions: 3 mg/kg
[4] = tested on: ZDF rat; assay: oGTT in ZDF rat; format: in vivo; conditions: 3 mg/kg
[5] = tested on: Cynomolgus monkey; assay: oGTT in normal cynomolgus monkey; format: in vivo; conditions: 3 mg/kg
[6] = oral pharmacokinetics in mouse; format: in vivo, Male C57B1 mouse
[7] = oral pharmacokinetics in rat; format: in vivo; conditions: Male Sprague-Dawley rat, 10 mg/kg, 40% HPβCD
[8] = oral pharmacokinetics in dog; format: in vivo; conditions: Male beagle dog, 7.85 mg/kg, 100% PEG400
[9] = oral pharmacokinetics in monkey; format: in vivo; conditions: Male cynomolgus monkey, 10 mg/kg, 100% PEG400
[10] = tested on: Caco-2 monolayers; assay: permeability across Caco-2 monolayers; format: in vitro ADME
[11] = stability in rat liver microsomes; format: in vitro ADME
[12] = stability in human liver microsomes; format: in vitro ADME
[13] = biological target: hERG channel (Homo sapiens, UniProt Q12809); assay: hERG patch clamp study; format: cell-based
[14] = tested on: anesthetized Guinea Pig; assay: cardiovascular effects in the anesthetized Guinea Pig; format: in vivo; conditions: cumulative doses up to 5 mg/kg i.v., compared to vehicle controls
[15] = tested on: Male C57BL/6 mice fed high fat diet; assay: High Fat Diet (HFD) mouse model of non-alcoholic fatty liver disease; format: in vivo; conditions: five times per week for six weeks
From the text: Male C57BL/6 mice (8 weeks) were fed either normal or high fat diet (HFD) (60% TD06414, Envigo) and given water ad libitum. […] At 20 weeks, mice were sacrificed and serum plasma was collected for measurement of various biochemical parameters, including serum transaminases.

[16] = tested on: rat; conditions: 14-day
[17] = tested on: dog; conditions: 7-day
[18] = tested on: healthy male volunteers; conditions: cited from earlier work
[19] = tested on: T2DM patients; conditions: cited from earlier work
[20] = tested on: mice fed a high-fat diet; conditions: cited from earlier work
[21] = Sprague-Dawley rat, 3-30 mg/kg PO
[22] = Male C57B1 mouse, 10 mg/kg, 40% HPβCD
[23] = healthy male volunteers, 2.5-800 mg
[24] = oral single-dose, compared with placebo
[25] = 100 or 500 mg single-dose or 500 mg once daily for 14 days
[26] = multiple dosing, compared to baseline
[27] = oral administration, mice fed a high-fat diet

Sequence of hERG channel (Q12809 whole entry): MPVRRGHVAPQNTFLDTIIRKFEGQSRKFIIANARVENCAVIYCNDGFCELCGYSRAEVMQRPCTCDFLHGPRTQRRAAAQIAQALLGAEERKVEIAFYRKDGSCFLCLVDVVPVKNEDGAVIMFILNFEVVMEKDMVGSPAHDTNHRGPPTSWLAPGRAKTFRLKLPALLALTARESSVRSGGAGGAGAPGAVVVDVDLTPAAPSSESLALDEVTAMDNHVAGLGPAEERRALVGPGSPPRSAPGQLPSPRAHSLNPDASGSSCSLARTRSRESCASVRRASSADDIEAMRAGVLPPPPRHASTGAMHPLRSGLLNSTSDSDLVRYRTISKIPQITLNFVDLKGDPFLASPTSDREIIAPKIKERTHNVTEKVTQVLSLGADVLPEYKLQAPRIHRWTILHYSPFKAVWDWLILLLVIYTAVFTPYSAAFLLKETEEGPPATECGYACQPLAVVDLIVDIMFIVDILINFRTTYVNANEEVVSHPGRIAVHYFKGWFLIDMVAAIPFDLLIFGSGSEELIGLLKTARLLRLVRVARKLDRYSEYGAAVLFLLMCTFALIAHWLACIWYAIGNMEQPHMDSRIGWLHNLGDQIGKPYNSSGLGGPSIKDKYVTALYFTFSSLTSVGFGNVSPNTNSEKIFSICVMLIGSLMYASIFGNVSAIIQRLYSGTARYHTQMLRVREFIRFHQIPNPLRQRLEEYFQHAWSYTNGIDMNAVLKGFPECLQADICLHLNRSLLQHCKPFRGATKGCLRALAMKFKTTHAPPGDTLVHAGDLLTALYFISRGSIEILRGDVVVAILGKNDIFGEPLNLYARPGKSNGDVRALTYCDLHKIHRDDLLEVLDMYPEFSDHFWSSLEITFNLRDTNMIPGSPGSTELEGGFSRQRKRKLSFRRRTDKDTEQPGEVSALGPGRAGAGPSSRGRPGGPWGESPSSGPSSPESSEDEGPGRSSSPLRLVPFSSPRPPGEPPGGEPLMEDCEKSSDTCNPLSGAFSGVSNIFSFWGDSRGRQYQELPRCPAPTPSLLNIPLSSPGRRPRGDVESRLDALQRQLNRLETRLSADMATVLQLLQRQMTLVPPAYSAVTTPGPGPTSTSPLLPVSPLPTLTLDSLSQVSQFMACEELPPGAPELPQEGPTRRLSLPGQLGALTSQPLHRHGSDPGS

COc1c(Nc2ccc(S(C)(=O)=O)nc2C)ncnc1OC1CCN(C(=O)OC(C)C)CC1 [Compound 1, 4-[6-(6-Methanesulfonyl-2-methyl-pyridin-3-ylamino)-5-methoxy-pyrimidin-4-yloxy]-piperidine-1-carboxylic acid isopropyl ester]
AUCglu during oGTT [1]: significant reduction; also recorded: significant main effect | Compd exposure upon oGTT ([2]; SD rats, 3 mg/kg): 482 ± 116 ng/mL | Blood glucose AUC (% of vehicle group) ([2]; SD rats, 3 mg/kg, oGTT): 85.1 ± 1.9 % of vehicle group | AUCglu during oGTT [2, 21]: markedly reduced; also recorded: significant main effect | glucose handling [2, 21]: significantly improved | Blood glucose AUC (% of vehicle group) [3]: 78.4 ± 5.1 % of vehicle group | Compd exposure upon oGTT [4]: 1592 ± 128 ng/mL | Blood glucose AUC (% of vehicle group) ([4]; oGTT): 72.8 ± 6.3 % of vehicle group | Compd exposure upon oGTT [5]: 112 ± 16.9 ng/mL | Blood glucose AUC (% of vehicle group) ([5]; oGTT): 82.8 ± 1.7 % of vehicle group | AUCinf [6, 22]: 319953 ng·h/mL | Cmax [6, 22]: 25833 ng/mL | tmax [6, 22]: 2 h | exposure after oral dosing ([6]; mouse): high | % F [7]: 72% | AUCinf [7]: 12471 ng·h/mL | Cmax [7]: 1390 ng/mL | tmax [7]: 1 h | % F [8]: 22.1% | AUCinf [8]: 43743 ng·h/mL | Cmax [8]: 1983 ng/mL | tmax [8]: 8 h | % F [9]: 68.8% | AUCinf [9]: 64180 ng·h/mL | Cmax [9]: 4803 ng/mL | tmax [9]: 6 h | permeability across Caco-2 monolayers, A to B ([10]; A to B): 26 ×10⁻⁶ cm/s | permeability across Caco-2 monolayers, B to A ([10]; B to A): 15 ×10⁻⁶ cm/s | t1/2 in liver microsomes [11]: > 1 h | t1/2 in liver microsomes [12]: > 1 h | IC50 [13]: 13 ± 0.2 µM | effects on mean arterial blood pressure (MAP), heart rate (HR) or electrocardiogram (ECG) [14]: did not produce any dose-related, statistically significant effects | increases in serum ALT caused by high fat diet ([15]; HFD mice, 3, 10 and 30 mg/kg/day): blocked | preliminary safety findings [16]: no obvious liabilities | preliminary safety findings [17]: no obvious liabilities | hypoglycemia [18, 23]: not associated with hypoglycemia | systemic exposure in plasma versus dose [18, 23]: increased in proportion to the dose | tolerability [18, 23]: well tolerated | influence of food on systemic exposure in plasma ([18]; healthy male volunteers, coadministration of food): not influenced by coadministration of food | terminal elimination half-life ([18]; healthy male volunteers, oral suspension formulation): ~13 h | glucose excursion [18, 24]: did not significantly decrease | insulin secretion [18, 24]: did not significantly decrease glucose excursion or increase insulin secretion | postmeal plasma glucagon-like peptide 1 (GLP-1) concentration [18, 24]: increased | postmeal plasma glucose-dependent insulinotropic peptide (GIP) concentration [18, 24]: increased | postmeal plasma peptide YY (PYY) concentration [18, 24]: increased | hypoglycemia [19, 25]: not associated with hypoglycemia | tolerability [19, 25]: well tolerated | plasma systemic exposure versus dose [19]: increased with increased dose | post-meal gastric insulinotropic peptide concentration [19, 26]: increased | post-meal total glucagon-like peptide 1 concentration [19, 26]: increased | time to attain steady-state ([19]; multiple-dose administration): approximately 8 days | plasma systemic exposure after multiple-dose administration ([19]; multiple-dose versus single-dose): approximately two-fold greater | glucose excursion during an oral glucose tolerance test ([19]; single-dose, compared with placebo): decreased

CCc1cnc(N2CCC(c3nc(COc4ccc(-n5cnnn5)cc4)cs3)CC2)nc1 [MBX-2982]
increases in serum ALT caused by high fat diet ([15]; HFD mice, 10 mg/kg/day): blocked by treatment with Compound 1, but not MBX-2982 | hepatic antilipogenesis effects in GPR119 KO mice ([20]; GPR119 KO mice): abolished | expression levels of SREBP-1 and lipogenesis-related genes [20, 27]: potently inhibited | hepatic lipid accumulation [20, 27]: potently inhibited
